Source: PubChem BioAssay AID248 (DTP/NCI, 2004)
Values joined by “and” are separate entries in the source; they are usually repeats but may differ in a detail not shown here. Equal values may be shown once. Inconclusive results and toxic doses are left out.

Tested on: L1210 leukemia ip in BDF1 mice, survival T/C
Assay: NCI In Vivo Anticancer Drug Screen. Data for tumor model L1210 Leukemia (intraperitoneal) in B6D2F1 (BDF1) mice
Conditions: higher = longer survival
Outline: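 Survival endpoint. Drug-treated group vs vehicle group, expressed as T divided by C. Tumor passaged by transplantation.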

Question: What does the source list for `OC(C1CO1)C(O)C1CO1` (stereo not given)?
Answer: T/C (endpoint: mean survival time, dose: 0.25 mg/kg/injection, schedule: Q03HX008 (ip), vehicle: saline): 106 % of control; T/C (endpoint: mean survival time, dose: 0.35 mg/kg/injection, schedule: Q01DX009 (ip), vehicle: saline): 94 % of control; T/C (endpoint: mean survival time, dose: 0.5 mg/kg/injection, schedule: Q01DX009 (ip), vehicle: saline): 104 % of control; T/C (endpoint: mean survival time, dose: 0.5 mg/kg/injection, schedule: Q03HX008 (ip), vehicle: saline): 115 % of control; T/C (endpoint: mean survival time, dose: 0.52 mg/kg/injection, schedule: Q01DX009 (ip), vehicle: saline): 97 % of control; T/C (endpoint: mean survival time, dose: 0.61 mg/kg/injection, schedule: Q04DX003 (ip), vehicle: saline): 104 % of control; T/C (endpoint: mean survival time, dose: 0.65 mg/kg/injection, schedule: Q01DX009 (ip), vehicle: water): 110 % of control; T/C (endpoint: mean survival time, dose: 0.96 mg/kg/injection, schedule: Q01DX001 (ip), vehicle: saline): 119 % of control; T/C (endpoint: mean survival time, dose: 1.0 mg/kg/injection, schedule: Q01DX009 (sc), vehicle: saline): 121 % of control; T/C (endpoint: mean survival time, dose: 1.0 mg/kg/injection, schedule: Q03HX016 (ip), vehicle: saline): 160 % of control; T/C (endpoint: mean survival time, dose: 1.0 mg/kg/injection, schedule: Q03HX024 (ip), vehicle: saline): 170 % of control; T/C (endpoint: mean survival time, dose: 1.0 mg/kg/injection, schedule: Q04DX003 (ip), vehicle: saline): 110 % of control and 116 % of control; T/C (endpoint: mean survival time, dose: 1.25 mg/kg/injection, schedule: Q04DX003 (ip), vehicle: saline): 104 % of control; T/C (endpoint: mean survival time, dose: 1.3 mg/kg/injection, schedule: Q01DX009 (ip), vehicle: saline): 175 % of control; T/C (endpoint: mean survival time, dose: 1.4 mg/kg/injection, schedule: Q01DX001 (ip), vehicle: saline): 119 % of control; T/C (endpoint: mean survival time, dose: 1.4 mg/kg/injection, schedule: Q01DX009 (ip), vehicle: saline): 184 % of control; T/C (endpoint: mean survival time, dose: 1.6 mg/kg/injection, schedule: Q01DX009 (ip), vehicle: water): 102 % of control; T/C (endpoint: mean survival time, dose: 1.87 mg/kg/injection, schedule: Q01DX001 (ip), vehicle: saline): 110 % of control; T/C (endpoint: mean survival time, dose: 2.0 mg/kg/injection, schedule: Q01DX001 (ip), vehicle: saline): 116 % of control; T/C (endpoint: mean survival time, dose: 2.0 mg/kg/injection, schedule: Q03HX008 (ip), vehicle: saline): 227 % of control; T/C (endpoint: mean survival time, dose: 2.0 mg/kg/injection, schedule: Q03HX016 (ip), vehicle: saline): 218 % of control; T/C (endpoint: mean survival time, dose: 2.0 mg/kg/injection, schedule: Q03HX024 (ip), vehicle: saline): 105 % of control; T/C (endpoint: mean survival time, dose: 2.0 mg/kg/injection, schedule: Q04DX003 (ip), vehicle: saline): 123 % of control; T/C (endpoint: mean survival time, dose: 2.0 mg/kg/injection, schedule: Q08DX002 (ip), vehicle: saline): 113 % of control; T/C (endpoint: mean survival time, dose: 2.5 mg/kg/injection, schedule: Q01DX009 (ip), vehicle: saline): 118 % of control; T/C (endpoint: mean survival time, dose: 2.5 mg/kg/injection, schedule: Q04DX003 (ip), vehicle: saline): 105 % of control and 115 % of control; T/C (endpoint: mean survival time, dose: 3.0 mg/kg/injection, schedule: Q01DX009 (ip), vehicle: saline): 163 % of control and 186 % of control and 193 % of control; T/C (endpoint: mean survival time, dose: 3.0 mg/kg/injection, schedule: Q01DX009 (ip), vehicle: water): 224 % of control; T/C (endpoint: mean survival time, dose: 3.2 mg/kg/injection, schedule: Q01DX009 (ip), vehicle: saline): 120 % of control; T/C (endpoint: mean survival time, dose: 3.3 mg/kg/injection, schedule: Q01DX001 (ip), vehicle: saline): 154 % of control; T/C (endpoint: mean survival time, dose: 3.75 mg/kg/injection, schedule: Q01DX001 (ip), vehicle: saline): 118 % of control; T/C (endpoint: mean survival time, dose: 4.0 mg/kg/injection, schedule: Q01DX001 (sc), vehicle: saline): 115 % of control; T/C (endpoint: mean survival time, dose: 4.0 mg/kg/injection, schedule: Q01DX009 (ip), vehicle: saline): 160 % of control; T/C (endpoint: mean survival time, dose: 4.0 mg/kg/injection, schedule: Q04DX003 (ip), vehicle: saline): 168 % of control and 170 % of control and 198 % of control; T/C (endpoint: mean survival time, dose: 4.0 mg/kg/injection, schedule: Q08DX002 (ip), vehicle: saline): 155 % of control; T/C (endpoint: mean survival time, dose: 4.6 mg/kg/injection, schedule: Q01DX001 (ip), vehicle: saline): 113 % of control; T/C (endpoint: mean survival time, dose: 4.6 mg/kg/injection, schedule: Q01DX009 (ip), vehicle: saline): 89 % of control; T/C (endpoint: mean survival time, dose: 4.6 mg/kg/injection, schedule: Q04DX003 (ip), vehicle: saline): 242 % of control and 112 % of control; T/C (endpoint: mean survival time, dose: 4.6 mg/kg/injection, schedule: Q08DX002 (ip), vehicle: saline): 163 % of control; T/C (endpoint: mean survival time, dose: 5.0 mg/kg/injection, schedule: Q01DX001 (ip), vehicle: saline): 214 % of control; T/C (endpoint: mean survival time, dose: 5.0 mg/kg/injection, schedule: Q01DX009 (ip), vehicle: saline): 95 % of control and 204 % of control and 255 % of control; T/C (endpoint: mean survival time, dose: 5.0 mg/kg/injection, schedule: Q01DX009 (ip), vehicle: water): 108 % of control; T/C (endpoint: mean survival time, dose: 5.0 mg/kg/injection, schedule: Q04DX003 (ip), vehicle: saline): 124 % of control; T/C (endpoint: mean survival time, dose: 6.7 mg/kg/injection, schedule: Q04DX003 (ip), vehicle: saline): 195 % of control and 227 % of control; T/C (endpoint: mean survival time, dose: 7.0 mg/kg/injection, schedule: Q01DX001 (ip), vehicle: saline): 157 % of control and 240 % of control and 117 % of control; T/C (endpoint: mean survival time, dose: 7.0 mg/kg/injection, schedule: Q01DX009 (ip), vehicle: saline): 97 % of control and 115 % of control; T/C (endpoint: mean survival time, dose: 7.0 mg/kg/injection, schedule: Q04DX003 (ip), vehicle: saline): 284 % of control and 122 % of control; T/C (endpoint: mean survival time, dose: 7.0 mg/kg/injection, schedule: Q08DX002 (ip), vehicle: saline): 191 % of control; T/C (endpoint: mean survival time, dose: 7.5 mg/kg/injection, schedule: Q01DX001 (ip), vehicle: saline): 185 % of control; T/C (endpoint: mean survival time, dose: 7.5 mg/kg/injection, schedule: Q01DX009 (ip), vehicle: saline): 169 % of control; T/C (endpoint: mean survival time, dose: 8.0 mg/kg/injection, schedule: Q01DX001 (ip), vehicle: saline): 158 % of control; T/C (endpoint: mean survival time, dose: 8.0 mg/kg/injection, schedule: Q01DX001 (oral), vehicle: saline): 200 % of control; T/C (endpoint: mean survival time, dose: 8.0 mg/kg/injection, schedule: Q04DX003 (ip), vehicle: saline): 300 % of control and 304 % of control; T/C (endpoint: mean survival time, dose: 8.0 mg/kg/injection, schedule: Q08DX002 (ip), vehicle: saline): 193 % of control; T/C (endpoint: mean survival time, dose: 10.0 mg/kg/injection, schedule: Q01DX009 (ip), vehicle: saline): 88 % of control; T/C (endpoint: mean survival time, dose: 10.0 mg/kg/injection, schedule: Q04DX003 (ip), vehicle: saline): 404 % of control and 448 % of control and 471 % of control; T/C (endpoint: mean survival time, dose: 10.6 mg/kg/injection, schedule: Q01DX001 (ip), vehicle: saline): 308 % of control and 105 % of control; T/C (endpoint: mean survival time, dose: 11.25 mg/kg/injection, schedule: Q01DX009 (ip), vehicle: saline): 91 % of control; T/C (endpoint: mean survival time, dose: 12.5 mg/kg/injection, schedule: Q01DX009 (ip), vehicle: saline): 110 % of control; T/C (endpoint: mean survival time, dose: 15.0 mg/kg/injection, schedule: Q04DX003 (ip), vehicle: saline): 161 % of control and 172 % of control and 368 % of control; T/C (endpoint: mean survival time, dose: 16.0 mg/kg/injection, schedule: Q01DX001 (ip), vehicle: saline): 368 % of control; T/C (endpoint: mean survival time, dose: 16.0 mg/kg/injection, schedule: Q01DX001 (sc), vehicle: saline): 180 % of control; T/C (endpoint: mean survival time, dose: 24.0 mg/kg/injection, schedule: Q04DX003 (ip), vehicle: saline): 191 % of control; T/C (endpoint: mean survival time, dose: 64.0 mg/kg/injection, schedule: Q01DX001 (ip), vehicle: saline): 97 % of control; T/C (endpoint: mean survival time, dose: 118.0 mg/kg/injection, schedule: Q08DX002 (ip), vehicle: saline): 105 % of control; T/C (endpoint: median survival time, dose: 1.0 mg/kg/injection, schedule: Q01DX009 (sc), vehicle: water): 111 % of control; T/C (endpoint: median survival time, dose: 2.0 mg/kg/injection, schedule: Q01DX009 (ip), vehicle: water): 188 % of control; T/C (endpoint: median survival time, dose: 2.0 mg/kg/injection, schedule: Q04DX003 (ip), vehicle: water): 122 % of control; T/C (endpoint: median survival time, dose: 2.0 mg/kg/injection, schedule: Q04DX003 (sc), vehicle: water): 111 % of control; T/C (endpoint: median survival time, dose: 2.5 mg/kg/injection, schedule: Q01DX001 (ip), vehicle: water): 122 % of control; T/C (endpoint: median survival time, dose: 4.0 mg/kg/injection, schedule: Q01DX009 (ip), vehicle: water): 116 % of control; T/C (endpoint: median survival time, dose: 4.0 mg/kg/injection, schedule: Q01DX009 (sc), vehicle: water): 105 % of control; T/C (endpoint: median survival time, dose: 4.0 mg/kg/injection, schedule: Q04DX003 (ip), vehicle: water): 166 % of control; T/C (endpoint: median survival time, dose: 4.0 mg/kg/injection, schedule: Q04DX003 (sc), vehicle: water): 155 % of control; T/C (endpoint: median survival time, dose: 8.0 mg/kg/injection, schedule: Q04DX003 (ip), vehicle: water): 94 % of control; T/C (endpoint: median survival time, dose: 8.0 mg/kg/injection, schedule: Q04DX003 (sc), vehicle: water): 100 % of control; T/C (endpoint: median survival time, dose: 10.0 mg/kg/injection, schedule: Q01DX001 (ip), vehicle: water): 154 % of control; T/C (endpoint: median survival time, dose: 20.0 mg/kg/injection, schedule: Q01DX001 (ip), vehicle: water): 103 % of control; T/C (endpoint: median survival time, dose: 40.0 mg/kg/injection, schedule: Q01DX001 (ip), vehicle: water): 99 % of control

Question: Which results are given for `CC12C(C#N)=C(c3ccccc3)C=C(c3ccccc3)C1=C(c1ccccc1)c1ccccc12` (stereo not given)?
Answer: T/C (endpoint: mean survival time, dose: 100.0 mg/kg/injection, schedule: Q01DX009 (ip), vehicle: Klucel (hydroxypropylcellulose) (HPC)): 100 % of control; T/C (endpoint: mean survival time, dose: 100.0 mg/kg/injection, schedule: Q04DX003 (ip), vehicle: Klucel (hydroxypropylcellulose) (HPC)): 89 % of control; T/C (endpoint: mean survival time, dose: 200.0 mg/kg/injection, schedule: Q01DX009 (ip), vehicle: Klucel (hydroxypropylcellulose) (HPC)): 100 % of control; T/C (endpoint: mean survival time, dose: 200.0 mg/kg/injection, schedule: Q04DX003 (ip), vehicle: Klucel (hydroxypropylcellulose) (HPC)): 100 % of control; T/C (endpoint: mean survival time, dose: 400.0 mg/kg/injection, schedule: Q01DX009 (ip), vehicle: Klucel (hydroxypropylcellulose) (HPC)): 94 % of control; T/C (endpoint: mean survival time, dose: 400.0 mg/kg/injection, schedule: Q04DX003 (ip), vehicle: Klucel (hydroxypropylcellulose) (HPC)): 94 % of control
